In patent US20240207228A1, “A COMBINATION COMPRISING A SPECIFIC HDAC6 INHIBITOR AND AT LEAST ONE CTLA4 CHECKPOINT INHIBITOR” (ITALFARMACO SPA, priority 2021, published 2024):

What was measured:
PD-L1 [1] = experiment: PD-L1 expression in mouse immune cells in vivo; conditions: ITF3756 50 mg/Kg three times a day
[2] = Mean level in 24 hours after the efficacious schedule in the mouse; assay type: in vivo; conditions: administration schedule that had shown efficacy, used as target for projected doses
Procedure: The human doses for ITF3756 were predicted using a physiologically based pharmacokinetic (PBPK) model, through the use of the software GastroPlus™ (Simulation Plus, Lancaster, CA). The target Caverage for projected doses was 200 ng/mL, mean level in 24 hours found after the administration schedule that had shown efficacy in the mouse.

[3] = tested on: mouse colon carcinoma cell line CT26; experiment: Anti-tumor effect in the CT26 murine model (tumor growth inhibition from tumor nodule volume/weight); assay type: in vivo; parameters: key to Statistical significance vs Control group on day 10 / Statistical significance vs Control group on day 12 / Statistical significance vs Control group on day 14 / Statistical significance vs Control group on day 17 / Statistical significance vs Control group on day 19 / Statistical significance vs Control group on day 21 / Statistical significance vs Control group on day 24: n.s.: not significant; *: p < 0.05; **: p < 0.01; conditions: for Statistical significance vs Control group on day 10 / Statistical significance vs Control group on day 12 / Statistical significance vs Control group on day 14 / Statistical significance vs Control group on day 17 / Statistical significance vs Control group on day 19 / Statistical significance vs Control group on day 21 / Statistical significance vs Control group on day 24: CT26 tumor growth
Procedure: The anti-tumor efficacy of ITF3756, administered in combination with anti-CTLA4 antibody, has been determined using a murine model based on the use of the mouse colon carcinoma cell line CT26. In this model, the CT26 cells are implanted subcutaneously to syngeneic mice and the efficacy is determined as tumor growth inhibition on the basis of the volume of the tumor nodule.
ITF3756 was synthetized by the Medicinal Chemistry Dept. of Italfarmaco SpA. ITF3756, batch 5, as powder was solubilized in DMSO and stored at −20° C. On each day of administration, the solution was diluted with H2O/PEG 400 1:1 to obtain a final solution of H2O/PEG 400 1:1 in DMSO 0.5% at 2.5 and 5.0 mg/mL.
The solutions were administered orally by using gavage needles for mice, in a volume of 200 μL (final doses 25 and 50 mg/Kg).
ITF3756 administration started when the tumor nodules were palpable (around day 10 from cells inoculation).
Syrian hamster IgG Mab anti-mouse CTLA4 was purchased from BioXell (cat. BE0131, clone 9H10), diluted with PBS at 1, 0.3 and 0.1 mg/mL final concentration and stored at +4° C. Each mouse was treated with 200 μL of the respective solution (final doses 10.0, 3.0 and 1.0 mg/Kg).
Anti-CTLA4 Mab administration started when the tumor nodules were palpable (around day 10 from cells inoculation). Anti-CTLA4 was administered intraperitoneally (ip) once a day on alternate days for a total of 4 treatments, followed by 7 days of wash-out, as reported in table 1. This treatment cycle continued up to the end of the study.
Female 6 weeks old BALB/c mice were purchased from Charles River Italia and maintained with food and water ad libitum, under light-dark cycle of 12 hours.
After 5 days of acclimatization, the mice were submitted to tumor cells injection.
CT26 (murine BALB/c colon carcinoma, CT26.WT ATCC CRL-2638) cells were grown in RPMI 1640 cell culture medium+10% fetal calf serum (FCS).
The cells were detached, during the exponential phase, with trypsin, washed with the culture medium without FCS and suspended at 5×10^6 cells/mL final concentration.
The cells (1×10^6 cells/mouse) were injected s.c. in the inguinal region of the right flank of the mice in a volume of 200 μL.
When the tumor nodule was palpable in at least 80% of the animals, the mice were randomized in the following experimental groups and drugs administration was started.
Body weight was measured on alternate days, starting from the first day of drug administration.
The volume of subcutaneous tumor nodules was determined on alternate days, according to the following formula (Papagiannoros A. et al. in vivo 20:129-136, 2006):
where D=major diameter of the nodule and d=minor diameter of the nodule.
The weight of the tumor nodule was determined by the tumor volume considering a tumor density of 1.05 g/mL (Jensen M. M. et al. BMC Medical Imaging 8(16), 2008).
The animals were euthanized when the tumor weight was equal to the 10% of body weight or the tumor nodules were ulcerated (humane end-points).
The statistical analysis of the drugs effect was carried out by 2-way ANOVA with Dunnett's multiple comparisons test using GraphPad Prism 8 software.

PD-L1 [4] = experiment: Cytokine-induced PD-L1 expression in human monocytes stimulated in vitro; assay type: cell-based
[5] = tested on: 4T1 triple negative breast cancer; experiment: 4T1 breast cancer model, previous experiments with single agents; assay type: in vivo, mouse; conditions: each drug as single agent
Procedure: […] mice challenged with syngeneic tumor cell line 4T1 triple negative breast cancer are used.
4T1 tumor model is considered a poorly immunogenic tumor (Demaria et al., Clin. Cancer Res. 11, 728-734, 2005).
ITF3756 is used at the same dosage used for the treatment of CT26 colon cancer, namely 50 mg/kg (mpk) TID as single agent and in combination with anti CTLA-4 antibody. The latter is administered at 3 mpk 3 times a week on alternate days.
Tumor growth is induced after subcutaneous injection of cell line and mice are monitored for at least three weeks post-injection.

female NOD mice = experiment: Diabetes induction in female NOD mice (glycemia); assay type: in vivo; conditions: day 0-21, ITF3756 50 mg/kg os 3x/day, antibodies 500 μg (d0) + 250 μg/mouse ip, diabetes = glucose >250 mg/dL two consecutive days
Procedure: NOD mice spontaneously developed diabetes and they represent a widely accepted spontaneous model of Type 1 diabetes mellitus (Pearson et al., 2016, Journal of Autoimmunity 66, 76-88).
ITF3756 was synthetized by the Medicinal Chemistry Dept. of Italfarmaco SpA. ITF3756, batch 9, as powder was solubilized in DMSO and stored at −20° C.
Antibody treatment was according to Ansari (Ansari et al., 2003, The Journal of experimental medicine 1 98, 63-69)
Glycemia was evaluated in all mice for 3 weeks from day 0 (start treatment) until day 21 (end of study). Blood glucose levels were measured by glucometer One Touch® Verio. Blood samples were drawn from the tail vein by a prick with a needle. A drop of blood was inserted in a test strip and glucometer automatically calculated the glucose level. Results were shown in the display of the instrument. The instrument measures from 20 to 600 mg/dL. Results below 20 or above 600 mg/dL are visualized by the instrument as “below 20” or “above 600”.
Diabetes was defined by blood glucose reading of >250 mg/dL for two consecutive days.
Mice were monitored for 3 weeks; during this time, body weight was measured 7 times.

Caverage, mean level in 24 hours [2]: 200 ng/mL
SMILES: O=C(NO)c1ccc(Cn2nnnc2-c2cccs2)cc1 [ITF3756, N-hydroxy-4-((5-(thiophen-2-yl)-1H-tetrazol-1-yl)methyl)benzamide]
PD-L1 expression (PD-L1 [1]): decreased | Statistical significance vs Control group on day 10 ([3]; ITF3756 25 mg/Kg): n.s. | Statistical significance vs Control group on day 12 ([3]; ITF3756 25 mg/Kg): n.s. | Statistical significance vs Control group on day 14 ([3]; ITF3756 25 mg/Kg): n.s. | Statistical significance vs Control group on day 17 ([3]; ITF3756 25 mg/Kg): n.s. | Statistical significance vs Control group on day 19 ([3]; ITF3756 25 mg/Kg): n.s. | Statistical significance vs Control group on day 21 ([3]; ITF3756 25 mg/Kg): n.s. | Statistical significance vs Control group on day 24 ([3]; ITF3756 25 mg/Kg): n.s. | Statistical significance vs Control group on day 10 ([3]; ITF3756 50 mg/Kg): n.s. | Statistical significance vs Control group on day 12 ([3]; ITF3756 50 mg/Kg): n.s. | Statistical significance vs Control group on day 14 ([3]; ITF3756 50 mg/Kg): n.s. | Statistical significance vs Control group on day 17 ([3]; ITF3756 50 mg/Kg): n.s. | Statistical significance vs Control group on day 19 ([3]; ITF3756 50 mg/Kg): n.s. | Statistical significance vs Control group on day 21 ([3]; ITF3756 50 mg/Kg): * (p < 0.05) | Statistical significance vs Control group on day 24 ([3]; ITF3756 50 mg/Kg): n.s. | Statistical significance vs Control group on day 10 ([3]; ITF3756 50 mg/Kg x3): n.s. | Statistical significance vs Control group on day 12 ([3]; ITF3756 50 mg/Kg x3): n.s. | Statistical significance vs Control group on day 14 ([3]; ITF3756 50 mg/Kg x3): n.s. | Statistical significance vs Control group on day 17 ([3]; ITF3756 50 mg/Kg x3): n.s. | Statistical significance vs Control group on day 19 ([3]; ITF3756 50 mg/Kg x3): * (p < 0.05) | Statistical significance vs Control group on day 21 ([3]; ITF3756 50 mg/Kg x3): ** (p < 0.01) | Statistical significance vs Control group on day 24 ([3]; ITF3756 50 mg/Kg x3): ** (p < 0.01) | inhibition of tumor growth ([3]; ITF3756 25 mg/Kg orally once a day, day 24): 7% | tumor weight ([3]; ITF3756 25 mg/Kg orally once a day, day 24, control 1.89 g): 1.76 g | inhibition of tumor growth ([3]; ITF3756 25 mg/Kg orally once a day, entire experimental period): did not show a significant inhibition of tumor growth | inhibition of tumor growth ([3]; ITF3756 50 mg/Kg orally 3 times a day, day 24): 30% | tumor weight ([3]; ITF3756 50 mg/Kg orally 3 times a day, day 24, control 1.89 g): 1.32 g | inhibition of tumor growth ([3]; ITF3756 50 mg/Kg orally once a day, day 21): 34% | tumor weight ([3]; ITF3756 50 mg/Kg orally once a day, day 21, control 1.34 g): 0.88 g | inhibition of tumor growth ([3]; ITF3756 50 mg/Kg orally once a day, day 24): 9% | tumor weight ([3]; ITF3756 50 mg/Kg orally once a day, day 24, control 1.89 g): 1.72 g | cytokine-induced expression of PD-L1 (PD-L1 [4]): decreases | average reduction of tumor growth [5]: approximately 40% | induction of diabetes (female NOD mice): did not accelerates the induction of autoimmune diabetes
